Test results: paper PMC3842960, “Natural Stilbenoids Isolated from Grapevine Exhibiting Inhibitory Effects against HIV-1 Integrase and Eukaryote MOS1 Transposase In Vitro Activities” (PLoS ONE, 2013)
pIC50: −log10 of the molar value.

Tests used:
topoisomerase II = system: topoisomerase II; parameters: method as in PMID 16508191; conditions: cited from earlier work
Mos1 transposase (MOS1) [1] = target: T1, Mos1 transposase (MOS1) (Drosophila mauritiana, UniProt Q7JQ07); test: MOS1 in vitro transposition assay (genetic hop experiment); type: biochemical, D. mauritiana
T1 construct: involving the full-length Mos1 transposase (MOS1) was recently solved; made in house
T1 sequence (Q7JQ07 whole entry): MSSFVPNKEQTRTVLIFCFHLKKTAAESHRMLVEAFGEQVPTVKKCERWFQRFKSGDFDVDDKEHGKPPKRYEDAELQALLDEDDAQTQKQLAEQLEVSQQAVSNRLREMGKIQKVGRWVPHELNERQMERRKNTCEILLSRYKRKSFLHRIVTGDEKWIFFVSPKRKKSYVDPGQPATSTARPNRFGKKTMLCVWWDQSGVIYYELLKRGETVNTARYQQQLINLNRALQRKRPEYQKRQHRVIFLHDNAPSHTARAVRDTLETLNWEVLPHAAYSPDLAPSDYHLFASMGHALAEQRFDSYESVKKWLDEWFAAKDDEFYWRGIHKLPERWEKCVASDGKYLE
Protocol: The wild type Mos1 transposase (MOS1: 345 amino acids) was produced and purified as a fusion protein linked to the maltose-binding protein by using the pMal-c2 system (New England Biolabs) and following the manufacturer's instructions.
(§1) In vitro transposition reactions were performed using pBC-3T3 as both the donor DNA and the target, as previously described. Briefly, the basic transposition reaction mixtures contained 10 mM Tris-HCl (pH 9), 50 mM NaCl, 20 mM MgCl2, 0.5 mM EDTA, 5% glycerol, 5 ng/ml BSA, 600 ng pBC-3T3, and 80 nM purified MBP-MOS1 (added last) in a volume of 20 µl. Inhibitors (25 or 10 µM, as specified) or DMSO (2%) were added to the reaction mixtures before the transposase. The reactions were allowed to proceed for 30 min at 30°C. After phenol-chloroform extraction and ethanol precipitation, 10% of the reaction mixture was transformed in electro-competent JM109 E. coli (2 mm cuvette, 1.5 kV in a MicroPulser™BioRad). Appropriate dilutions of each reaction mixture were plated on LB-tetracycline (12.5 µg/ml) agar and LB-chloramphenicol (80 µg/ml) agar to score the transposition rate. The transposition rate was the number of Tet^R colonies divided by the number of Chloram^R plus Tet^R colonies. Each condition was done at least three times in independent experiments.
To identify the natural stilbenes active on MOS1, the 17 molecules were tested using an in vitro genetic “hop” experiment, which is the most sensitive test available as yet. Purified MOS1 was incubated with the pBC-3T3 plasmid, which was used both as the transposon donor and the target plasmid. This plasmid contains the pBR322 tetracycline resistance gene (without promoter) framed by two Mos1 ITRs. This reconstitutes a pseudo-Mos1 element named 3T3. We took advantage of the fact that the cat gene (present in the pBC backbone) is a hotspot for Mos1 integration. […] Transposition events were recovered by bacterial transformation with selection for tetracycline resistance, as a gain-of-function landmark for transposition. […] Controls correspond to assays performed without molecule but with DMSO, which is routinely used as the solvent. […] To confirm the efficiency of the six molecules, they were similarly assayed at 10 µM ( figure 6B ). Since they appeared to be still active at 10 µM, they were further characterized in order to identify the targeted step of the transposition cycle.

HIV-1 IN [2] = target: T2, HIV-1 IN (Human immunodeficiency virus type 1 group M subtype B, UniProt P04585); test: HIV-1 IN 3′processing assay; type: biochemical; conditions: 600 nM IN; increasing concentrations
HIV-1 IN [3] = target: T2, HIV-1 IN; test: HIV-1 IN in vitro concerted integration assay (processed or unprocessed donor DNA); conditions: for differential effect between reactions: strand transfer / processed donor versus 3′processing / unprocessed donor: comparison of concerted integration and 3′processing results; for inhibitory efficiency compared with raltegravir: concerted integration; for inhibitory efficiency compared with raltegravir / inhibition of concerted integration from processed and unprocessed donor: increasing concentrations
Mos1 transposase (MOS1) [4] = target: T1, Mos1 transposase (MOS1); test: MOS1 in vitro excision assay; type: biochemical, D. mauritiana
Protocol: (§2) Basic excision reaction mixtures contained 10 mM Tris-HCl (pH 9), 50 mM NaCl, 20 mM MgCl2, 0.5 mM EDTA, 0.5 mM DTT, 100 ng BSA, 600 ng of super-coiled pBC-3T3, and 80 nM MBP-MOS1 (added last) in a volume of 20 µl. Molecules (25 or 10 µM, as specified) or DMSO (2%) were added to the reaction mixtures before the transposase. The reactions were allowed to proceed at 30°C for 30 min before 2 µl of stop solution (loading buffer) were added. The reaction mixtures were then incubated at 65°C for 10 min. Each reaction was analysed by overnight electrophoresis at 2.7 V/cm on a TAE-buffered 1% agarose gel with ethidium bromide (0.3 mg/ml). After electrophoresis, the gel was photographed on a transilluminator. ImageGauge 4.22 software (Fujifilm) was used to quantify the bands. Each condition was tested at least twice.
The ability of the selected molecules to inhibit excision was tested in vitro using the pBC-3T3 plasmid as the transposon donor. MOS1 triggers the excision of the pseudo-Mos1 from the plasmid producing two linear DNA fragments, the transposon and the plasmid backbone, together with intermediate products (open circle plasmids which contained single strand nicks and linear plasmids which contained a double strand nick at one ITR). After excision, the transposon could be reintegrated, making it difficult to detect in electrophoresis. The activity of the molecules was measured by quantifying the plasmid backbone, the end product of the reaction. The assays were performed with final concentrations of 25 and 10 µM molecules. Controls correspond to assays performed without molecule but with DMSO. […] Reactions were performed at least twice for each selected molecules (leachianol G, leachianol F, quadrangularin A, hopeaphenol, vitisin B and pallidol) and the excision activity is reported in figure 7B . […] The six selected molecules were then tested for the integration step of Mos1 transposition.

MOS1 = target: T3, MOS1 (Drosophila mauritiana, UniProt Q7JQ07); test: MOS1 in vitro activities, overall statements of the discussion; type: biochemical, D. mauritiana; conditions: in vitro assays of MOS1 activities; discussion
T3 construct: involving the full-length Mos1 transposase (MOS1) was recently solved; made in house
T3 sequence (Q7JQ07 whole entry): as above
Protocol: as §1, §2
These assays were performed using pre-cleaved 3′ITRs (PC-ITR), i.e. ITRs in the configuration expected after excision. Double-strand ITRs were obtained by annealing equimolar amounts of 70-NTS-PN (5′[…]3′) and 70-TS-PC (5′[…]3′) single-strand oligonucleotides. Prior to annealing, the transferred strand (70-TS-PC) was 5′-end labelled using T4 polynucleotide kinase (Promega) and γ-^32P-ATP following the manufacturer's instructions. Oligonucleotides were provided by Eurofins MWG Biotech (Germany) or Eurogentec (Belgium). Reaction mixtures containing 10 mM Tris-HCl (pH 9), 50 mM NaCl, 1 mM DTT, 5% glycerol, 100 ng BSA, 100 nM of labelled PC-ITR and 100 nM MBP-MOS1 in a final volume of 20 µl were incubated at 30°C for 30 min. The pBC plasmid (which contained the cat gene, a hot-spot for Mos1 insertion) was then added to 30 ng/µL along with 5 mM MgCl2. Molecules (25 or 10 µM, as specified) or DMSO (2%) were added to the reaction mixtures along with the target DNA to estimate their effect on integration. Reactions were carried out for 3 hours at 30°C. 0.1 mg/ml proteinase K and 0.1% SDS were added to stop the reaction. DNA products were purified by phenol-chloroform extraction and ethanol precipitated using standard techniques. DNA products were resuspended in DNA loading buffer, then separated onto a 1% agarose gel in 1X TAE (Tris Acetate EDTA) buffer. The gel was dried onto a nitrocellulose membrane (Hybond N+, GE Healthcare), scanned using a Storm, and analysed with ImageQuant software. Signals were quantified using ImageQuant software. Efficiency of integration was calculated as the intensity of the integration signal divided by the intensity of free target signal plus integration signal. Each condition was tested at least twice.
All molecules were also tested in in vitro assays reproducing integration and excision reactions catalysed by MOS1. […] In contrast, E-resveratrol and E-ε-viniferin glucoside, which act more specifically on HIV-1 3′processing reaction, and E-piceid and E-pterostilbene, which is more efficient on the integration reaction, were not active on MOS1.

[5] = system: VSV-G pseudotyped lentiviruses; type: cell-based
[6] = system: VSV-G pseudotyped lentiviruses; type: cell-based; conditions: 10 µM

Question: For `Oc1ccc(C(O)C2c3cc(O)cc(O)c3[C@H](c3ccc(O)cc3)[C@H]2c2cc(O)cc(O)c2)cc1` (some centres unmarked) [leachianol F], which “topoisomerase II inhibition” value (topoisomerase II) is on record?
Answer: potent topoisomerase II inhibitors

Question: What about the “activity against MOS1 in transposition assay” value (Mos1 transposase (MOS1) [1]; 10 µM) of the same compound?
Answer: still active

Question: And the “inhibition of the whole MOS1 transposition activity” value (Mos1 transposase (MOS1) [1]; 25 µM, DMSO control as reference)?
Answer: over 50%

Question: What about the “inhibitory effect on 3′processing” value (HIV-1 IN [2]) of the same compound?
Answer: showed an inhibitory effect

Question: What about the “inhibition of concerted integration” value (HIV-1 IN [3]; 50 µM, both activities (processed and unprocessed donor)) of the same compound?
Answer: 30–60%

Question: What about the “differential effect between reactions: strand transfer / processed donor versus 3′processing / unprocessed donor” value (HIV-1 IN [3]) of the same compound?
Answer: active on both reactions

Question: And the “inhibitory efficiency compared with raltegravir” value (HIV-1 IN [3])?
Answer: inhibitory efficiencies close to raltegravir

Question: And the “inhibition of concerted integration from processed and unprocessed donor” value (HIV-1 IN [3])?
Answer: inhibited both activities

Question: And the inhibition at 25 µM (Mos1 transposase (MOS1) [4]; 25 µM, DMSO control as reference, read-out: inhibition of in vitro excision reaction)?
Answer: > 50%

Question: And the pIC50 (Mos1 transposase (MOS1) [4]; concentration range, sigmoid dose-response fit)?
Answer: 4.52

Question: What about the “activity on MOS1” value (MOS1) of the same compound?
Answer: also active against MOS1 activities

Question: Which results are given for `COc1cc(/C=C/c2ccc(O)cc2)cc(OC)c1` [E-pterostilbene]?
Answer: differential effect between reactions: strand transfer / processed donor versus 3′processing / unprocessed donor (HIV-1 IN [3]): more active on strand transfer reaction than; inhibitory efficiency compared with raltegravir (HIV-1 IN [3]): inhibitory efficiencies close to raltegravir; inhibition of concerted integration from processed and unprocessed donor (HIV-1 IN [3]): inhibited both activities; integration inhibition evaluated by GFP fluorescence [5]: found to induce an integration inhibition; activity on MOS1 (MOS1): not active; 1LTR circles amount [6]: no decrease; 2LTR circles DNA [6]: non significant increase; integrated DNA amount [6]: slight but reproducible decrease; total viral DNA amount [6]: No significant change
